Measurements as given in article PMC6272399, “Anti-Proliferative Effect and Induction of Apoptosis in Androgen-Independent Human Prostate Cancer Cells by 1,5-Bis(2-hydroxyphenyl)-1,4-pentadiene-3-one” (Molecules, 2015).
“Also recorded” adds a separate entry of the source.

Tests used:
[1] = tested on: PC-3 cells; test: MTT cytotoxicity (cell viability) assay, PC-3; format: cell-based, human
Procedure: (§1) Cell viability was determined by the MTT [3-(4,5-dimethylthiazol-2-yl)-2,5-diphenyltetrazolium bromide] assay, as previously described by Mosmann with modifications. Briefly, cells were detached from the tissue culture flask and pelleted by centrifugation at 1000 rpm for 5 min. Then, the density of the viable cells was counted using a haemocytometer. Cells were then plated in a 96-well flat bottom micro-titer plate (Nunc) at a concentration of 10^4 cells/mL and incubated in a 5% CO2 incubator at 37 °C overnight to allow the cells to adhere to the bottom of the wells. After 24 h, the media was aspirated off and replaced with fresh media containing sample compounds (curcumin and curcumin analogues) of seven different concentrations ranging from 1.56 µM–100 µM and incubated at 37 °C, 5% CO2 for 72 h. Separately, the sample compounds were prepared in a stock solution of 50 mM in 100% dimethyl sulfoxide (DMSO, Molecular Biology Grade, Sigma-Aldrich, St. Louis, MO, USA) and diluted in the culture media to a working concentration of 200 µM. Curcumin, the parent compound which was used as the positive control was also prepared in the similar manner. A two-fold serial dilution was done for each sample in triplicates down the columns of the plate, yielding a final volume and concentration of 100 µL in 0.2% DMSO in each wells. Following treatment, 50 µL MTT solutions (0.5 mg/mL in PBS) was added to each well and incubated for another 4 h at 37 °C in a humidified 5% CO2 incubator. The supernatant was replaced with 100 µL of DMSO and the optical density (OD) was measured at 570/650 nm using a micro-plate ELISA reader (Bio-Rad Laboratories, Hercules, CA, USA). The percentage of viable cells was calculated based on the ratio of the corrected absorbance of sample-treated cells to the corrected absorbance of the control (0.2% DMSO-treated cells) multiplied by 100. The percentage of cell viability was determined as follows: % Cell viability= OD of treated cells /OD of control ×100
(§2) For each compound tested, the EC50 value was generated from the log dose-response curves for each cell line using the Graphpad Prism version 5.04 for Windows (Graphpad Software, La Jolla, CA, USA). […] Cytotoxicity of each tested compound is expressed as the EC50 value. Based on the EC50 values, selectivity index (SX) value was also determined. Selectivity index is a special parameter applied as a selectivity indicator of tested compounds towards cancer cells. The SX represents the ratio of EC50 value obtained in toxicity testing using the normal cell lines to the EC50 values of the toxicity testing of the cancer cells, and then multiplied by 100. All the compounds were assessed for their potential toxicity against normal, non-cancerous cells. […] The SX values were calculated using the following equation: SX = EC50 (normal cells)/EC50 (cancer cells) × 100

[2] = tested on: DU 145 cells; test: MTT cytotoxicity (cell viability) assay, DU 145; format: cell-based, human
Procedure: as §1, §2

[3] = tested on: WRL 68 (human epithelial hepatocytes); test: MTT cytotoxicity assay, normal WRL 68; format: cell-based; details: WRL68, normal cell line, 72 h treatment, mean ± SD, read-out: EC50 Values (µM) of Compounds on Cell Lines WRL-68
Procedure: as §1, §2

[4] = tested on: PC-3 cells; test: AO/EB double staining, morphology and quantification of apoptotic and necrotic cells, PC-3; format: cell-based, human
Procedure: Cell morphological changes were assessed by the differential staining DNA-intercalate fluorescent dyes acridine orange (AO) and ethidium bromide (EB). Cells (3 × 10^5) were seeded in a 6-well tissue culture plates, treated with MS17 at various concentrations (EC50, 2 × EC50, 3 × EC50) and incubated for 12, 24, 48 and 72 h time intervals. After incubation, cell pellets were suspended in 50 µL of cold PBS. To each samples, 10 µL of cell suspension was added with 1 µL of AO/EB dye mixture (1 part of 100 µg/mL of AO in PBS; 1 part of 100 µg/mL of EB in PBS) prior to microscopic examination. Ten microliter of the cell suspension mixed with the dye mixture was placed on a glass microscopic slide covered with a cover slip and was observed and photographed with a fluorescence microscope using a fluorescein filter (BX41, Olympus, Center Valley, PA, USA). A minimum of 200 total targeted cells were counted per sample and the percentage of cells from each population (viable, early apoptosis, late apoptosis and necrosis) was calculated. The experiment was conducted in triplicates. Untreated cells containing DMSO alone were used as negative control.

[5] = tested on: caspase-3 activity in PC-3 cells; test: Caspase-3 colorimetric activity assay, PC-3; format: cell-based, human
Procedure: Caspase-3 activity was determined using the caspase-3 colorimetric assay kit (Sigma-Aldrich) according to manufacturer’s protocol. The assay is based on spectrophotometric detection of p-nitroanilide (pNA) a colored molecule, after its cleavage from the labeled substrate DEVD-pNA by the activity of caspase-3 enzyme. PC-3 and DU 145 cells were treated with MS17 at different concentrations (EC50, 2 × EC50, 3 × EC50) at various time points, 6, 12, 24, 48 and 72 h as appropriate. Following treatment, cells were washed with PBS and suspended with lysis buffer (50 mM HEPES, pH 7.4, 5 mM CHAPS, 5 mM DTT) for 30 min on ice at the concentration of 10^7 cells per 100 µL buffer. Cells were then spun for 30 min at 16,000× g, 4 °C. Protein lysate concentrations were measured based on the Bradford assay method using the Cayman Chemical protein determination kit (Cayman Chemical Company, Ann Arbor, MI, USA) based on the manufacturer’s protocol. Assay was performed on a 96-well micro-titer plate by adding equal amount of protein lysate (~100 µg) into wells containing the assay buffer (20 mM HEPES pH 7.4, 0.1% CHAPS, 5 mM DTT, 2 mM EDTA). Reaction was started by the addition of 10 µL of substrate Ac-DEVD-pNA (2 mM). The effect of Ac-DEVD-CHO, a caspase-3 inhibitor was also studied simultaneously on caspase-3 activity. Ten microliter of the inhibitor (200 µM) was added into the wells containing the protein lysate, assay buffer and the substrate. Caspase-3 activity was measured upon the release of pNA molecule, a pale yellow colored product using the micro-plate ELISA reader (Bio-Rad) at the wavelength of 405 nm. Relative caspase-3 activity was expressed as absorbance of enzyme activity compared with the control (untreated cells/DMSO only) based on the equation below: Relative caspase 3 activity= Absorbance of treated cells /Absorbance of control

O=C(C=Cc1ccccc1O)C=Cc1ccccc1O [MS17, 1,5-bis(2-hydroxyphenyl)-1,4-pentadiene-3-one]
EC50 ([1]; Homo sapiens, PC-3, MTT, 72 h treatment, mean ± SD, three experiments, read-out: EC50 Values (µM) of Compounds on Cell Lines PC-3): 4.4 ± 0.3 µM | dose from which decrease in cell viability is significant ([1]; PC-3, MTT, vs untreated): 3.1 µM | Selective index (SX) WI-38 vs PC-3 ([1]; SX = EC50 (WI-38)/EC50 (PC-3) × 100): 117.4 | Selective index (SX) WRL68 vs PC-3 ([1]; SX = EC50 (WRL68)/EC50 (PC-3) × 100): 124.9 | dose from which decrease in cell viability is significant ([2]; DU 145, MTT, vs untreated): 6.3 µM | EC50 ([2]; Homo sapiens, DU-145, MTT, 72 h treatment, mean ± SD, three experiments, read-out: EC50 Values (µM) of Compounds on Cell Lines DU 145): 4.1 ± 0.8 µM | Selective index (SX) WI-38 vs DU 145 ([2]; SX = EC50 (WI-38)/EC50 (DU 145) × 100): 126.3 | Selective index (SX) WRL68 vs DU 145 ([2]; SX = EC50 (WRL68)/EC50 (DU 145) × 100): 134.3 | EC50 [3]: 5.5 ± 0.5 µM | morphological observation of cell nuclei (AO/EB) ([4]; PC-3, MS17-treated vs untreated): typical signs of apoptosis such as cell shrinkage, formation of apoptotic bodies and membrane blebbing | necrotic cells ([4]; PC-3, all three doses, 12 and 24 h): less than 5% | relative caspase-3 activity (treated vs untreated) ([5]; PC-3, 4.5, 9.0 and 13.5 µM, 48 h): increased significantly; also recorded: significant increase of caspase-3 activity | relative caspase-3 activity, differences between concentrations ([5]; PC-3, 12, 24 and 72 h): no significant differences of caspase-3 activity
